Patent US12643884B2, “1-(2-(4-cyclopropyl-1H-1,2,3-triazol-1-yl)acetyl)-4-hydroxypyrrolidine-2-carboxa|mide derivatives as VHL inhibitors for the treatment of anemia” (Genentech, Inc., priority 2020, dated 2026)

Legend:
[1] = target: T1, NanoLuc VHL fusion protein stably expressed in HEK 293 cells (Homo sapiens, UniProt P40337); assay: VHL HEK-293 BRET Assay (VHL NanoBRET Target Engagement Assay); assay type: cell-based; settings: for IC50: HEK293 cells, nanoBRET, geometric mean where more than one measurement, read-out: VHL binding in cells (HEK293 nanoBRET); for Ratio cell permeability shift: ratio of nanoBRET in cells to nanoBRET +Digitonin
T1 construct: expressed in transfected cells
T1 sequence (P40337 whole entry, the tested form may be a part): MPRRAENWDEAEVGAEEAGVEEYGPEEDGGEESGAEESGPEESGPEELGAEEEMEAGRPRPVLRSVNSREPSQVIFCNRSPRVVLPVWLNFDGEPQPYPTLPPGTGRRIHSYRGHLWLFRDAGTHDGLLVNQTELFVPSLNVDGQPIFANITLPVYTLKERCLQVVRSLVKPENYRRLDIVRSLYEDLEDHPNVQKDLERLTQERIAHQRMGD
T1 sequence (Q15370 whole entry partner, the tested form may be a part): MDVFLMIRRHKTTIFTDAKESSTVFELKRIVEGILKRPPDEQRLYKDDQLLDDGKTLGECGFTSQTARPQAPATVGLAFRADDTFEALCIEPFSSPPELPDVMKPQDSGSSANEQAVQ
T1 sequence (Q15369 whole entry partner, the tested form may be a part): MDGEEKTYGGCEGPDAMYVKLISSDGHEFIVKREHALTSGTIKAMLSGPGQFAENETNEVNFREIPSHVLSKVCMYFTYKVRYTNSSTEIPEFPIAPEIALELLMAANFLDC
Description: The VHL NanoBRET™ Target Engagement Assay analyzes the apparent affinity of test compounds for VHL in cells by competitive displacement of a VHL NanoBRET™ tracer reversibly bound to a NanoLuc® VHL fusion protein stably expressed in the cells.
Test compounds were transferred to the assay plate (384 Well White Non-Binding Corning Assay Plates (Corning-3574)) using an Echo 555 Liquid Handler (Labcyte) in 2.5 nL increments and, as appropriate, intermediate stock concentrations of compounds, in order to prepare a titration series. 50 nL of control compound (10 mM; parental unlabeled VHL antagonist; see structure below) and 50 nL of DMSO (negative control) were dispensed into the appropriate control wells. DMSO was backfilled to a final volume of 50 nL as required. 50 nl per well of 1 mM VHL NanoBRET™ Tracer in DMSO (NanoBRET™ Tracer-PEG2-590 (see structure below)) was transferred into each well using an Echo 555 (ultimately yielding a final concentration of 1 uM). HEK 293 RT VHL-NanoLuc® stable cells were cultured in DMEM High Glucose with Pyruvate, 10% fetal bovine serum, 2 mg/mL of Geneticin Selective Antibiotic (50 mg/ml) and 2 mM HEPES (1 M). Cells were seeded in Opti-MEM (Life Technologies-11058-021), 1.7×10^5 cells/mL, 40 μl per well into the assay plate, centrifuged at 500 rpm for 30 seconds and incubated for 2 hours. Max Signal control wells consisted of DMSO only treated wells. Minimum Signal control wells contained of 10 uM parental unlabeled VHL antagonist (control compound—see structure below). 3× Complete Substrate plus Inhibitor Solution was prepared in Opti-MEM (consists of a 1:166 dilution of NanoBRET™ Nano-Glo® Substrate plus a 1:500 dilution of Extracellular NanoLuc® Inhibitor in Opti-MEM), and 20 ul was dispensed into each well of the 384-well plate and centrifuged at 1000 rpm for 1 minute, then incubated for 2 minutes at room temperature. Background Signal control wells were prepared without tracer for background correction steps.
Plates were read using a PerkinElmer Envision Reader (model 2104-0020) equipped with Luminescence option (Mirror: BRET2 Enh (PE Barcode 659), Emission Filter: Omega 610LP (Barcode 504), 2nd Emission Filter: Umbelliferone 460 (Barcode 207), Measurement height: 6.5 mm, Measurement time: 1 s). The raw BRET ratio values were calculated by dividing the acceptor emission value (610 nm) by the donor emission value (460 nm) for each sample. To correct for background, the BRET ratio in the absence of tracer (average of no-tracer control samples) was subtracted from the BRET ratio of each sample. Raw BRET units were converted to milliBRET units (mBU) by multiplying each raw BRET value by 1,000. The normalized NanoBRET™ signal was calculated relative to the Max Signal control wells (DMSO treated control wells) and the Minimum Signal control wells. Percentage inhibition was calculated relative to the Minimum Signal control and Maximum Signal control wells. IC50 values were derived by four parameter curve fitting using the Robust method.

[2] = target: T2, VHL (Homo sapiens, UniProt P40337); assay: VHL nanoBRET (+Digitonin); assay type: cell-based
T2 construct: expressed in transfected cells
T2 sequence (P40337 whole entry): as the sequence (P40337 whole entry, the tested form may be a part) above
T2 sequence (Q15370 whole entry partner): as the sequence (Q15370 whole entry partner, the tested form may be a part) above
T2 sequence (Q15369 whole entry partner): as the sequence (Q15369 whole entry partner, the tested form may be a part) above

IC50 [1] [nM]	Ratio cell permeability shift [1]	EC50 [2] [nM]	SMILES
9090	1.52	5990	CC(C)NC(=O)[C@@H]1C[C@@H](O)CN1C(=O)[C@@H](n1cc(C2CC2)nn1)C(C)(C)C [Final product from Example S15, (2S,4R)-1-((S)-2-(4-cyclopropyl-1H-1,2,3-triazol-1-yl)-3,3-dimethylbutanoyl)-4-hydroxy-N-isopropylpyrrolidine-2-carboxamide]
2430	0.68	3560	CC(C)(C)[C@@H](C(=O)N1C[C@H](O)C[C@H]1C(=O)NCCF)n1cc(C2CC2)nn1 [Final product from Example S16, (2S,4R)-1-((S)-2-(4-cyclopropyl-1H-1,2,3-triazol-1-yl)-3,3-dimethylbutanoyl)-N-(2-fluoroethyl)-4-hydroxypyrrolidine-2-carboxamide]
4150	1.07	3890	CCNC(=O)[C@@H]1C[C@@H](O)CN1C(=O)[C@@H](n1cc(C2CC2)nn1)C(C)(C)C [Final product from Example S17, (2S,4R)-1-((S)-2-(4-cyclopropyl-1H-1,2,3-triazol-1-yl)-3,3-dimethylbutanoyl)-N-ethyl-4-hydroxypyrrolidine-2-carboxamide]
4990	1	4990	CC(C)(C)[C@@H](C(=O)N1C[C@H](O)C[C@H]1C(=O)NC1(C(F)(F)F)CC1)n1cc(C2CC2)nn1 [Final product from Example S18, (2S, 4R)-1-((S)-2-(4-cyclopropyl-1H-1,2,3-triazol-1-yl)-3,3-dimethylbutanoyl)-4-hydroxy-N-(1-(trifluoromethyl)cyclopropyl)pyrrolidine-2-carboxamide]
800	0.90	890	CNC(=O)[C@@H]1C[C@@H](O)CN1C(=O)[C@H](C(C)C)n1cc(-c2ccco2)nn1 [Final product from Example S19, (2S, 4R)-1-((S)-2-(4-(furan-2-yl)-1H-1,2,3-triazol-1-yl)-3-methylbutanoyl)-4-hydroxy-N-methylpyrrolidine-2-carboxamide]
2120	1.71	1240	CNC(=O)[C@@H]1C[C@@H](O)CN1C(=O)[C@H](C(C)C)n1cc(C2(C)CC2)nn1 [Final product from Example S20, (2S,4R)-4-hydroxy-N-methyl-1-((S)-3-methyl-2-(4-(1-methylcyclopropyl)-1H-1,2,3-triazol-1-yl)butanoyl)pyrrolidine-2-carboxamide]
2830	0.86	3290	CNC(=O)[C@@H]1C[C@@H](O)CN1C(=O)[C@H](C(C)C)n1cc(C2CCC2)nn1 [Final product from Example S21, (2S,4R)-1-((S)-2-(4-cyclobutyl-1H-1,2,3-triazol-1-yl)-3-methylbutanoyl)-4-hydroxy-N-methylpyrrolidine-2-carboxamide]
3210	1.15	2780	CNC(=O)[C@@H]1C[C@@H](O)CN1C(=O)[C@H](C(C)C)n1cc(C2CCCC2)nn1 [Final product from Example S22, (2S, 4R)-1-[(2S)-2-(4-cyclopentyltriazol-1-yl)-3-methyl-butanoyl]-4-hydroxy-N-methyl-pyrrolidine-2-carboxamide]
–	0.96	4940	CNC(=O)[C@@H]1C[C@@H](O)CN1C(=O)C(=C(C)C)n1cc(C2CC2)nn1 [Final product from Example S27, (2S, 4R)-1-[2-(4-cyclopropyltriazol-1-yl)-3-methyl-but-2-enoyl]-4-hydroxy-N-methyl-pyrrolidine-2-carboxamide]
590	0.75	790	CNC(=O)[C@@H]1C[C@@H](O)CN1C(=O)[C@H](C(C)C)n1cc(-c2cccs2)nn1 [Final product from Example S28, (2S, 4R)-4-hydroxy-N-methyl-1-((S)-3-methyl-2-(4-(thiophen-2-yl)-1H-1,2,3-triazol-1-yl)butanoyl)pyrrolidine-2-carboxamide]
3200	1.51	2120	CNC(=O)[C@@H]1C[C@@H](O)CN1C(=O)[C@H](C(C)C)n1cc(-c2cnco2)nn1 [Final product from Example S32, (2S, 4R)-4-hydroxy-N-methyl-1-[(2S)-3-methyl-2-(4-oxazol-5-yltriazol-1-yl)butanoyl]pyrrolidine-2-carboxamide]
1380	1.09	1270	CNC(=O)[C@@H]1C[C@@H](O)CN1C(=O)[C@H](C(C)C)n1cc(-c2ccccc2)nn1 [Final product from Example S34, (2S,4R)-4-hydroxy-N-methyl-1-((S)-3-methyl-2-(4-phenyl-1H-1,2,3-triazol-1-yl)butanoyl)pyrrolidine-2-carboxamide]
1700	0.85	2010	CNC(=O)[C@@H]1C[C@@H](O)CN1C(=O)[C@H](C(C)C)n1cc(-c2ccccn2)nn1 [Final product from Example S35, (2S,4R)-4-hydroxy-N-methyl-1-((S)-3-methyl-2-(4-(pyridin-2-yl)-1H-1,2,3-triazol-1-yl)butanoyl)pyrrolidine-2-carboxamide]
1220	1.21	1010	CNC(=O)[C@@H]1C[C@@H](O)CN1C(=O)[C@H](C(C)C)n1cc(-c2cccnc2)nn1 [Final product from Example S36, (2S,4R)-4-hydroxy-N-methyl-1-((S)-3-methyl-2-(4-(pyridin-3-yl)-1H-1,2,3-triazol-1-yl)butanoyl)pyrrolidine-2-carboxamide]
1960	1.33	1470	CNC(=O)[C@@H]1C[C@@H](O)CN1C(=O)[C@H](C(C)C)n1cc(-c2ccncc2)nn1 [Final product from Example S37, (2S,4R)-4-hydroxy-N-methyl-1-((S)-3-methyl-2-(4-(pyridin-4-yl)-1H-1,2,3-triazol-1-yl)butanoyl)pyrrolidine-2-carboxamide]
13800	3.40	4060	CNC(=O)[C@@H]1C[C@@H](O)CN1C(=O)[C@H](C(C)C)n1cc(-c2ncccn2)nn1 [Final product from Example S38, (2S,4R)-4-hydroxy-N-methyl-1-((S)-3-methyl-2-(4-(pyrimidin-2-yl)-1H-1,2,3-triazol-1-yl)butanoyl)pyrrolidine-2-carboxamide]
1690	2.35	720	CNC(=O)[C@@H]1C[C@@H](O)CN1C(=O)[C@H](C(C)C)n1cc(-c2cncnc2)nn1 [Final product from Example S39, (2S,4R)-4-hydroxy-N-methyl-1-((S)-3-methyl-2-(4-(pyrimidin-5-yl)-1H-1,2,3-triazol-1-yl)butanoyl)pyrrolidine-2-carboxamide]
570	1.24	460	CNC(=O)[C@@H]1C[C@@H](O)CN1C(=O)[C@H](C(C)C)n1cc(-c2ccc(Cl)s2)nn1 [Final product from Example S40, (2S,4R)-1-((S)-2-(4-(5-chlorothiophen-2-yl)-1H-1,2,3-triazol-1-yl)-3-methylbutanoyl)-4-hydroxy-N-methylpyrrolidine-2-carboxamide]
